This is an account of results in publication PMC12668310, “High‐Throughput Synthesis and Screening of a Cyanimide Library Identifies Selective Inhibitors of ISG15‐Specific Protease mUSP18” (Angewandte Chemie (International Ed. in English), 2025).

In this assay the target is T1, mUSP18 (Mus musculus, UniProt Q9WTV6).
T1 construct: (46-368); His-tag (N); made in house
T1 sequence (Q9WTV6 46-368): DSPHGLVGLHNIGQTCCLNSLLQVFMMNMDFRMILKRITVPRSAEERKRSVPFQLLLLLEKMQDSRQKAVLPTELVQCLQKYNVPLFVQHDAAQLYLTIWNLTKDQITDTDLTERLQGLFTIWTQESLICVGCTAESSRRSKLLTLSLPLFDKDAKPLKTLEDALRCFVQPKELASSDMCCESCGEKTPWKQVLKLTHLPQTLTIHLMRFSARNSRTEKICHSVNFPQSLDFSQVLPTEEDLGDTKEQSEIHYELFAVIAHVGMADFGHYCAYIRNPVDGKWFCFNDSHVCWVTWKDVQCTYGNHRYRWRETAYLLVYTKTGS
The assay is described as follows: High-throughput screening, ISG15ct-RhoMP, single dose 1.25 µM. In kind it is biochemical, murine. The conditions noted are these: mUSP18 %inhibition.

The mark [1] stands for this setting: carboxylic acid (CA) building block alone, read-out: %inh CA only.
[2] abbreviates: carboxylic acid (CA) with coupling reagents DIC/HOBT, read-out: %inh CA + DIC/HOBT.

Where two headings read alike, the source gives them in different places.

In the case of `O=C(O)c1ccc(OCc2ccncc2)cc1` [CA105], the inhibition at 1.25 µM by setting is: under setting [1], 12.9%; under setting [2], 11.9%.
The like results for `O=C(O)c1cc(-n2ccnc2)ccn1` [CA106] were, in that order, 13.6% and 10.8%.
The like results for `O=C(O)C1CCN(Cc2ccc(Cl)s2)CC1` [CA107] were, in that order, 13% and 10.7%.
For `O=C(O)C1CC(=O)N(c2cnccn2)C1` (stereo not drawn) [CA108], the inhibition at 1.25 µM by setting is: under setting [1], 13.8%; under setting [2], 11.5%.
On to `CCC(C(=O)O)n1nnc(-c2ccsc2)n1` (stereo not drawn) [CA109], for which the inhibition at 1.25 µM was found to be 10.4% under setting [1] and 12.2% under setting [2].
The like results for `Cc1cnn(-c2c(C(=O)O)c(C)nn2C)c1` [CA110] were, in that order, 12.9% and 15%.
As for `O=C(O)c1csc(-c2ncccn2)n1` [CA111], the inhibition at 1.25 µM was found to be 12.3% under setting [1] and 14.7% under setting [2].
Regarding `O=C(O)c1ncoc1C1CC1` [CA112], the inhibition at 1.25 µM amounted to 13.7% under setting [1] and 16.4% under setting [2].
Regarding `O=C(O)CC(O)(c1nccn1Cc1ccccc1)C(F)(F)F` (stereo not drawn) [CA113], the inhibition at 1.25 µM runs as follows: under setting [1], 9.19%; under setting [2], 16.2%.
The like results for `O=C(O)c1cn(C2CCC2)nn1` [CA114] were, in that order, 23.9% and 9%.
As to `Cc1ccc(NS(=O)(=O)c2cccc(C(=O)O)c2)cc1` [CA115], the inhibition at 1.25 µM by setting is: under setting [1], 21.2%; under setting [2], 6.11%.
For `O=C(O)[1C@@H]1C[1C@H]1c1ccco1` [CA116], the inhibition at 1.25 µM by setting is: under setting [1], 14.9%; under setting [2], 4.8%.
The like results for `Cn1ncc(C(=O)O)c1-n1cccc1` [CA117] were, in that order, 18.6% and 10%.
The like results for `O=C(O)C1(n2cnnn2)CC1` [CA118] were, in that order, 12.1% and 4.09%.
As to `O=C(O)C1CC(OCc2ccccc2)C1` (stereo not drawn) [CA119], the inhibition at 1.25 µM runs as follows: under setting [1], 13.6%; under setting [2], 8.14%.
The like results for `O=C(O)C1(n2cnnn2)CCOCC1` [CA120] were, in that order, 11.7% and 5.68%.
The like results for `O=C(O)c1noc(Cc2ccccc2F)n1` [CA121] were, in that order, 10.7% and 7.15%.
In the case of `CCn1cc(S(=O)(=O)N2CCC(C(=O)O)CC2)cn1` [CA122], the inhibition at 1.25 µM is, setting by setting: under setting [1], 11.4%; under setting [2], 5.98%.
Turning to `O=C(O)[1C@@H]1CCO[1C@H]1c1ccccc1` [CA123], the inhibition at 1.25 µM by setting is: under setting [1], 12.2%; under setting [2], 8.31%.
The like results for `O=C(O)c1cnnn1-c1ccccc1Cl` [CA124] were, in that order, 10.7% and 3.42%.
The like results for `O=C(O)c1cnn(-c2ccncc2)c1` [CA125] were, in that order, 7.48% and 7.42%.
The like results for `O=C(O)c1snnc1-c1ccc(Br)cc1` [CA126] were, in that order, 9.01% and 10.8%.
Regarding `Cc1nc(CN2CCCC2C(=O)O)no1` (stereo not drawn) [CA127], the inhibition at 1.25 µM came to 2.84% under setting [1] and 5.46% under setting [2].
For the molecule `Cc1oc(-c2ccco2)nc1CC(=O)O` [CA128], the inhibition at 1.25 µM under setting [1] was 4.02% and the inhibition at 1.25 µM under setting [2] was 9.87%.
As for `O=C(O)c1ccccc1OCc1ccncc1` [CA129], the inhibition at 1.25 µM came to 8.78% under setting [1] and 10.2% under setting [2].
The like results for `COc1ccc(N2CCN(C(C)C(=O)O)CC2)cc1` (stereo not drawn) [CA130] were, in that order, 7.09% and 7.3%.
On to `Cc1cc(C)c(C(=O)O)c(OCC2CCCCC2)n1` [CA131], for which the inhibition at 1.25 µM reads like this: under setting [1], 9.41%; under setting [2], 31.3%.
The like results for `O=C(O)c1ccc(S(=O)(=O)NC2CC2)cc1` [CA132] were, in that order, 7.6% and 4.16%.
The like results for `O=C(O)c1cc(-c2ccc(Cl)cc2)oc1C(F)(F)F` [CA133] were, in that order, 11% and 11.8%.
The like results for `O=C(O)c1cccc(S(=O)(=O)Nc2ccc(Cl)cc2)c1` [CA134] were, in that order, 10% and 11.6%.
On to `O=C(O)c1ccn(-c2ncc(C(F)(F)F)cc2Cl)n1` [CA135], for which the inhibition at 1.25 µM under setting [1] was 4.28% and the inhibition at 1.25 µM under setting [2] is 10.4%.
The like results for `O=C(O)Cc1coc(-c2ccccc2)n1` [CA136] were, in that order, 8.08% and 12.8%.
Take `Cn1cc(NS(=O)(=O)c2ccsc2C(=O)O)cn1` [CA137]: the inhibition at 1.25 µM was 3.97% under setting [1] and 20.1% under setting [2].
The like results for `O=C(O)CC(NS(=O)(=O)c1ccccc1)c1ccc(Cl)cc1` (stereo not drawn) [CA138] were, in that order, 22.3% and 5.42%.
The like results for `O=C(O)c1cccc(S(=O)(=O)NCC2CCCO2)c1` (stereo not drawn) [CA139] were, in that order, 14.3% and -1.37%.
With `O=C(O)c1c[nH]nc1-c1cccnc1` [CA140], the inhibition at 1.25 µM is, setting by setting: under setting [1], 9.15%; under setting [2], 7.35%.
The like results for `O=C(O)Cc1ccc(NS(=O)(=O)c2c(Cl)cccc2Cl)cc1` [CA141] were, in that order, 9.99% and 2.69%.
The like results for `O=C(O)c1csc(-c2cnccn2)n1` [CA142] were, in that order, 8.67% and 6.39%.
The like results for `O=C(O)c1cccc(S(=O)(=O)NC2CC2)c1` [CA143] were, in that order, 5.82% and 3.07%.
Regarding `O=C(O)c1ccc(Oc2cccc(Cl)c2Cl)nn1` [CA144], the inhibition at 1.25 µM worked out at 10.8% under setting [1] and 12.9% under setting [2].
For `CC1CC1C(=O)N1CCCCC1C(=O)O` (stereo not drawn) [CA145], the inhibition at 1.25 µM runs as follows: under setting [1], 4.43%; under setting [2], 1.71%.
The like results for `O=C(O)c1ncoc1-c1ccco1` [CA146] were, in that order, 8.58% and 6.8%.
The like results for `COc1cc(C(=O)O)ccc1OCc1c(C)noc1C` [CA147] were, in that order, 5.62% and 3.45%.
The like results for `O=C(O)c1cc(-c2ccc(Cl)s2)[nH]n1` [CA148] were, in that order, 7.78% and 9.65%.
Turning to `O=C(O)Cc1ccc(S(=O)(=O)N2CCOCC2)s1` [CA149], the inhibition at 1.25 µM is, setting by setting: under setting [1], 9.87%; under setting [2], 8.05%.
On to `O=C(O)c1cc(OCc2ccccc2)ccn1` [CA150], for which the inhibition at 1.25 µM is 3.17% under setting [1] and 5.95% under setting [2].
The like results for `CN(Cc1ccco1)c1ccccc1C(=O)O` [CA151] were, in that order, 3.28% and 7.61%.
The like results for `Cc1cccc(C(=O)N2CCCCC2C(=O)O)n1` (stereo not drawn) [CA152] were, in that order, 2.22% and 6.16%.
For `Cc1nc(-c2c(C)c(C)nn(C)c2=O)sc1C(=O)O` [CA153], the inhibition at 1.25 µM under setting [1] came out at 1.24% and the inhibition at 1.25 µM under setting [2] was 3.87%.
The like results for `O=C(O)c1cnc(COc2ccccc2)s1` [CA154] were, in that order, 0.13% and 5.09%.
The like results for `CC1=NN(c2ccc(C(=O)O)cc2)CC1` [CA155] were, in that order, 4.05% and 20.8%.
The like results for `Cc1oc(Cn2cc(Br)cn2)cc1C(=O)O` [CA156] were, in that order, 8.69% and 12.3%.
With `Cn1cc(S(=O)(=O)NCc2ccco2)cc1C(=O)O` [CA157], the inhibition at 1.25 µM is, setting by setting: under setting [1], 2.07%; under setting [2], 6.58%.
As to `O=C(O)Cc1cccc(OCc2ccccn2)c1` [CA158], the inhibition at 1.25 µM turned out to be 1.44% under setting [1] and 6.76% under setting [2].
The like results for `Cc1nc(-c2ncccn2)sc1C(=O)O` [CA159] were, in that order, 2.85% and 8.46%.
The like results for `O=C(O)c1cn(CCc2ccccc2)nn1` [CA160] were, in that order, 3.82% and 10.4%.
Regarding `O=C(O)c1cn(CC(=O)N2CCCC2)nn1` [CA161], the inhibition at 1.25 µM amounted to 2.32% under setting [1] and 14.5% under setting [2].
Take `COc1ccccc1-c1nnc(CC(=O)O)o1` [CA162]: the inhibition at 1.25 µM is, setting by setting: under setting [1], 23.2%; under setting [2], 4.62%.
The like results for `Cc1ccc(N(CCC(=O)O)S(=O)(=O)c2ccccc2)cc1` [CA163] were, in that order, 18.6% and 0.52%.
The like results for `Cn1nccc1[1C@@H]1OCCC[1C@H]1C(=O)O` [CA164] were, in that order, 14.4% and -2.41%.
Regarding `O=C(O)c1cc(-c2ccc(Br)cc2)ns1` [CA165], the inhibition at 1.25 µM turned out to be 16% under setting [1] and 9.48% under setting [2].
The like results for `Cn1ncc(C2CC2)c1C(=O)O` [CA166] were, in that order, 10.9% and -0.27%.
The like results for `CCC1(Cn2cc(C(=O)O)nn2)COC1` [CA167] were, in that order, 10.3% and 2.71%.
The like results for `O=C(O)c1cc(-n2ccnn2)ccc1F` [CA168] were, in that order, 11.2% and -1.08%.
For `O=C(O)c1noc(-c2cccc(Cl)c2)n1` [CA169], the inhibition at 1.25 µM reads like this: under setting [1], 8.46%; under setting [2], 4.42%.
Turning to `Cc1nnnn1-c1cc(C(=O)O)cc(C(F)(F)F)c1` [CA171], the inhibition at 1.25 µM runs as follows: under setting [1], 9.55%; under setting [2], 3.27%.
